Reference: patent US6159700A, “Method of finding agonist and antagonist to human and rat GPR14” (SmithKline Beecham Corporation, priority 1999, dated 2000)
One block for each molecule: values may come before it. Bridge positions count the residues as written; N and C are the ends. Peptide text beside a SMILES is read from it.

How the values were obtained:
rat GPR14 receptor [1] = target: T1, rat GPR14 receptor (Rattus norvegicus, UniProt P49684); assay: Binding to rat GPR14 receptor; details: compared with Human GPR14
T1 sequence (P49684 1-386): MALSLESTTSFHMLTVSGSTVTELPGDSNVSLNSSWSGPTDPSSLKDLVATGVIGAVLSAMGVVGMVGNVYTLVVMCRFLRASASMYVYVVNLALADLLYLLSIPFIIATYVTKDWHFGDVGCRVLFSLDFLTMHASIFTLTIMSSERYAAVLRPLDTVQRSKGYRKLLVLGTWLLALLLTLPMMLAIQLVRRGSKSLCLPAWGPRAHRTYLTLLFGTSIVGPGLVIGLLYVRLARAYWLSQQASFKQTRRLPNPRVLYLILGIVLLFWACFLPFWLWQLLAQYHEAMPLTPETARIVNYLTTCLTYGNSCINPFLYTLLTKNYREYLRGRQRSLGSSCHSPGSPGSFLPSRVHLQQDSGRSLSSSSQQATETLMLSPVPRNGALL
Source text: Ligand binding assays provide a direct method for ascertaining receptor pharmacology and are adaptable to a high throughput format. The purified ligand for a receptor is radiolabeled to high specific activity (50-2000 Ci/mmol) for binding studies. […] Assay conditions for buffers, ions, pH and other modulators such as nucleotides are optimized to establish a workable signal to noise ratio for both membrane and whole cell receptor sources. For these assays, specific receptor binding is defined as total associated radioactivity minus the radioactivity measured in the presence of an excess of unlabeled competing ligand. Where possible, more than one competing ligand is used to define residual nonspecific binding.

Vasoconstrictor potency = details: mammalian
intact primate = assay: Effects in the intact primate; assay type: in vivo
Human GPR14 = target: T2, Human GPR14 (human); assay: cell-based or functional assay
T2 chain: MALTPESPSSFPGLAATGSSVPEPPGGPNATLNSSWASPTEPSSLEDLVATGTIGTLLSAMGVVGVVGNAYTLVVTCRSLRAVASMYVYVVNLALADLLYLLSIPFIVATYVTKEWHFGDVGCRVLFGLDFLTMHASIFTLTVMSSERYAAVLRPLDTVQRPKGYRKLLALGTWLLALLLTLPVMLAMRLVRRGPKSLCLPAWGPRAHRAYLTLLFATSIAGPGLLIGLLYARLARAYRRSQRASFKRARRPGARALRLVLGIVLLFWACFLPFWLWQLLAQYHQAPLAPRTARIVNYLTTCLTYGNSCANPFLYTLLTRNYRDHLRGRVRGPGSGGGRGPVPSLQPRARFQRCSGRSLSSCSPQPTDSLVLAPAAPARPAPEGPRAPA

Rat GPR14 receptor [2] = target: T3, Rat GPR14 receptor (rat); assay: cell-based or functional assay
T3 chain: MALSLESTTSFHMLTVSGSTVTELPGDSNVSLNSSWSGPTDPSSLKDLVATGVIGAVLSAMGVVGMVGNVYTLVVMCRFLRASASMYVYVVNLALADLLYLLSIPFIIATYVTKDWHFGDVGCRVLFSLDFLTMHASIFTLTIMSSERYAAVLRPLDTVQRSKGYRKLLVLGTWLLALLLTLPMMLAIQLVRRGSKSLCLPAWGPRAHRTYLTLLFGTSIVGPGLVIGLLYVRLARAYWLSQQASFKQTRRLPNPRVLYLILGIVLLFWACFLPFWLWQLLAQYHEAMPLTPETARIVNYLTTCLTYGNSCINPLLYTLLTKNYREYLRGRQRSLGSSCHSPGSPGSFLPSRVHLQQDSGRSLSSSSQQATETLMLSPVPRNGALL

Molecule: CC(C)[C@H](NC(=O)[C@@H]1CSSC[C@H](NC(=O)[C@H](CC(=O)O)NC(=O)[C@@H]2CCCN2C(=O)[C@@H](NC(=O)[C@@H](N)CCC(=O)O)[C@@H](C)O)C(=O)N[C@@H](Cc2ccccc2)C(=O)N[C@@H](Cc2c[nH]c3ccccc23)C(=O)N[C@@H](CCCCN)C(=O)N[C@@H](Cc2ccc(O)cc2)C(=O)N1)C(=O)O [human urotensin II]
- binding to rat GPR14 receptor (rat GPR14 receptor [1]): binds equally well to rat GPR14 receptor
- vasoconstrictor potency (Vasoconstrictor potency): most potent mammalian vasoconstrictor identified to date
- cardiovascular effects in vivo (intact primate): induces systemic vasoconstriction, myocardial contractile dysfunction and, ultimately, lethal arrhythmias

Molecule: CC(C)[C@H](NC(=O)[C@@H]1CSSC[C@H](NC(=O)[C@H](CC(=O)O)NC(=O)[C@H](C)NC(=O)[C@@H](NC(=O)CNC(=O)[C@H](C)N)[C@@H](C)O)C(=O)N[C@@H](Cc2ccccc2)C(=O)N[C@@H](Cc2c[nH]c3ccccc23)C(=O)N[C@@H](CCCCN)C(=O)N[C@@H](Cc2ccc(O)cc2)C(=O)N1)C(=O)O [fish urotensin II] (H-AGTADCFWKYCV-OH; disulfide 6-11 (inferred); N-terminus and C-terminus assumed)
- binding to rat GPR14 receptor (rat GPR14 receptor [1]): binds equally well to rat GPR14 receptor

Next, values leading:

- EC50 of calcium mobilization (FLIPR) (Human GPR14): 0.5 nM
- EC50 of calcium mobilization (FLIPR) (Rat GPR14 receptor [2]): 0.8 nM
Molecule: AGTADCFWKYCV [Fish urotensin II]

- EC50 of calcium mobilization (Human GPR14): 0.1 to 0.2 nM
Molecule: ETPDCFWKYCV [Human urotensin II]
